US9701664B2, “Fused 1,4-dihydrodioxin derivatives as inhibitors of heat shock transcription factor 1” (Cancer Research Technology Limited, priority 2013, dated 2017)
pIC50: −log10 of the molar value.

What was measured:
HSP72 in SK-OV-3 cells = experiment: Cell-based ELISA (Cellisa) assay, SK-OV-3 cells: inhibition of 17-AAG-induced HSP72; conditions: SK-OV-3 cells (Examples 169-218)
Description: U2OS cells (5-8×10^4 cells/mL) or SK-OV-3 cells (5-8×10^4 cells/mL) were seeded into 96-well plates and incubated at 37° C. for 48 h. Compounds were then added at a range of concentrations and incubated for 1 h before addition of 17-AAG (250 nM). Cells were then incubated for 18 h. The medium was removed washed 2× with PBS and cells were then fixed with fixing solution (4% paraformaldehyde, 0.3% TritonX-100 in PBS) for 30 min at 4° C. The plates were then washed 2× with PBS before blocking with 5% milk for 30 min at 37° C. After washing the plates 4× with 0.1% Tween-20/deionised water, HSP72 antibody (SPA-810, Enzo Life) was added for 1.5 h at 37° C. Following 4× washes, the plates were incubated with europium-labelled anti-mouse antibody (0.6 ug/ml) in Delfia assay buffer (Perkin Elmer) for 1 h at 37° C. After washing the plates, Delfia enhancement solution was added, shaken for 10 min before reading in the Envision plate reader (Perkin-Elmer) with excitation at 340 nm and emission at 615 nm. The plates were washed again before protein determination using the bicinchoninic acid assay (BCA assay, Pierce Biotechnology). The europium counts were normalised for the amount of protein in each well. The 50% inhibitory concentration value of the compound was then calculated.

HSP72 in U2OS cells = experiment: Cell-based ELISA (Cellisa) assay, U2OS cells: inhibition of 17-AAG-induced HSP72; conditions: Homo sapiens; U2OS cells (Examples 1-168)
U2OS cells = experiment: Titre Blue cell viability assay, U2OS cells; assay type: cell-based; conditions: Homo sapiens, U2OS

Row | Compound | pIC50 (HSP72 in SK-OV-3 cells; Homo sapiens) | pIC50 (HSP72 in SK-OV-3 cells) | pIC50 (HSP72 in U2OS cells) | pIC50 (U2OS cells)
1 | O=C(Nc1ccc(Br)c(NC(=O)c2ccc3nc(CN4CCC4)ccc3c2)c1)c1ccc2c(c1)OCCO2 [Example 216, 2-(azetidin-1-ylmethyl)-N-(2-bromo-5-(2,3-dihydrobenzo[b][1,4]dioxine-6-carboxamido)phenyl)quinoline-6-carboxamide] | 7.26 | – | – | –
2 | O=C(Nc1ccc(F)c(NC(=O)c2ccc3nc(CN4CCCC4)ccc3c2)c1)c1ccc2c(c1)OCCO2 [Example 170, N-(5-(2,3-dihydrobenzo[b][1,4]dioxine-6-carboxamido)-2-fluorophenyl)-2-(pyrrolidin-1-ylmethyl)quinoline-6-carboxamide] | 6.42 | – | – | –
3 | O=C(Nc1ccc(F)c(NC(=O)c2ccc3nc(CN4CCCCC4)ccc3c2)c1)c1ccc2c(c1)OCCO2 [Example 172, N-(5-(2,3-dihydrobenzo[b][1,4]dioxine-6-carboxamido)-2-fluorophenyl)-2-(piperidin-1-ylmethyl)quinoline-6-carboxamide] | 6.17 | – | – | –
4 | 2-((4-(sec-butyl)piperazin-111)methyl)-N-(5-(2,3-dihydrobenzo[b][1,4]dioxine-6-carboxamido)-2-fluorophenyl)quinoline-6-carboxamide [Example 179] | – | 7.72 | – | –
5 | CCN1CCN(Cc2ccc3cc(C(=O)Nc4cc(NC(=O)c5ccc6c(c5)OCCO6)ccc4F)ccc3n2)CC1 [Example 169, N-(5-(2,3-dihydrobenzo[b][1,4]dioxine-6-carboxamido)-2-fluorophenyl)-2-((4-ethylpiperazin-1-yl)methyl)quinoline-6-carboxamide] | 7.25 | – | – | –
6 | O=C(Nc1ccc(Cl)c(NC(=O)c2ccc3nc(CN4CCCC4)ccc3c2)c1)c1ccc2c(c1)OCCO2 [Example 198, N-(2-chloro-5-(2,3-dihydrobenzo[b][1,4]dioxine-6-carboxamido)phenyl)-2-(pyrrolidin-1-ylmethyl)quinoline-6-carboxamide] | 6.76 | – | – | –
7 | C[C@@H]1CCCN1Cc1ccc2cc(C(=O)Nc3cc(NC(=O)c4ccc5c(c4)OCCO5)ccc3F)ccc2n1 [Example 176, (R)—N-(5-(2,3-dihydrobenzo[b][1,4]dioxine-6-carboxamido)-2-fluorophenyl)-2-((2-methylpyrrolidin-1-yl)methyl)quinoline-6-carboxamide] | 6.50 | – | – | –
8 | CN1CCN(Cc2ccc3cc(C(=O)Nc4cc(NC(=O)c5ccc6c(c5)OCCO6)ccc4Cl)ccc3n2)CC1 [Example 195, N-(2-chloro-5-(2,3-dihydrobenzo[b][1,4]dioxine-6-carboxamido)phenyl)-2-((4-methylpiperazin-1-yl)methyl)quinoline-6-carboxamide] | 7.18 | – | – | –
9 | O=C(Nc1ccc(F)c(NC(=O)c2ccc3nc(OCCCN4CCCC4)ccc3c2)c1)c1ccc2c(c1)OCCO2 [Example 187, N-(5-(2,3-dihydrobenzo[b][1,4]dioxine-6-carboxamido)-2-fluorophenyl)-2-(3-(pyrrolidin-1-yl)propoxy)quinoline-6-carboxamide] | 8.00 | – | – | –
10 | CC(C)N1CCN(Cc2ccc3cc(C(=O)Nc4cc(NC(=O)c5ccc6c(c5)OCCO6)ccc4F)ccc3n2)[C@H](C)C1 [Example 218, (R)—N-(5-(2,3-dihydrobenzo[b][1,4]dioxine-6-carboxamido)-2-fluorophenyl)-2-((4-isopropyl-2-methylpiperazin-1-yl)methyl)quinoline-6-carboxamide] | 7.10 | – | – | –
11 | Cc1ccc(NC(=O)c2ccc3c(c2)OCCO3)cc1NC(=O)c1ccc2nc(COCC(C)C)ccc2c1 [Example 151, N-(5-(2,3-dihydrobenzo[b][1,4]dioxine-6-carboxamido)-2-methylphenyl)-2-(isobutoxymethyl)quinoline-6-carboxamide] | – | – | 7.00 | 7.59
12 | Cc1ccc(NC(=O)c2ccc3c(c2)OCCO3)cc1NC(=O)c1ccc2c(c1)CS(=O)(=O)N2C [Example 168, N-(5-(2,3-dihydrobenzo[b][1,4]dioxine-6-carboxamido)-2-methylphenyl)-1-methyl-1,3-dihydrobenzo[c]isothiazole-5-carboxamide 2,2-dioxide] | – | – | 7.85 | 7.72
13 | Cc1cc2cc(C(=O)Nc3cc(NC(=O)c4ccc5c(c4)OCCO5)ccc3C)cnc2[nH]1 [Example 99, N-(5-(2,3-dihydrobenzo[b][1,4]dioxine-6-carboxamido)-2-methylphenyl)-2-methyl-1H-pyrrolo[2,3-b]pyridine-5-carboxamide] | – | – | 7.38 | 7.21
14 | Cc1ccc(NC(=O)c2ccc3c(c2)OCCO3)cc1NC(=O)c1ccc2nc(N(C)CCC(=O)O)ccc2c1 [Example 163, 3-((6-((5-(2,3-dihydrobenzo[b][1,4]dioxine-6-carboxamido)-2-methylphenyl)carbamoyl)quinolin-2-yl)(methyl)amino)propanoic acid] | – | – | 5.95 | 5.73
15 | Cc1ccc(NC(=O)c2ccc3c(c2)OCCO3)cc1NC(=O)c1ccc2nc(OCCCN3CCCC3)ccc2c1 [Example 56, N-(5-(2,3-dihydrobenzo[b][1,4]dioxine-6-carboxamido)-2-methylphenyl)-2-(3-(pyrrolidin-1-yl)propoxy)quinoline-6-carboxamide] | – | – | 7.89 | 8.52
16 | Cc1ccc(NC(=O)c2ccc3c(c2)OCCO3)cc1NC(=O)c1ccc2nc(OCCN3CCC(F)(F)CC3)ccc2c1 [Example 72, 2-(2-(4,4-difluoropiperidin-1-yl)ethoxy)-N-(5-(2,3-dihydrobenzo[b][1,4]dioxine-6-carboxamido)-2-methylphenyl)quinoline-6-carboxamide] | – | – | 6.98 | 7.22
17 | Cc1ccc(NC(=O)c2ccc3c(c2)OCCO3)cc1NC(=O)c1cnc2ncccc2c1 [Example 45, N-(5-(2,3-dihydrobenzo[b][1,4]dioxine-6-carboxamido)-2-methylphenyl)-1,8-naphthyridine-3-carboxamide] | – | – | 7.44 | 7.07
18 | Cc1cc(NCCN(C)C)c2cc(C(=O)Nc3cc(NC(=O)c4ccc5c(c4)OCCO5)ccc3C)ccc2n1 [Example 110, N-(5-(2,3-dihydrobenzo[b][1,4]dioxine-6-carboxamido)-2-methylphenyl)-4-(2-(dimethylamino)ethylamino)-2-methylquinoline-6-carboxamide] | – | – | 6.39 | 6.77
19 | Cc1ccc(NC(=O)c2ccc3c(c2)OCCO3)cc1NC(=O)c1ccc(OCc2ccccn2)cc1 [Example 19, N-(4-methyl-3-(4-(pyridin-2-ylmethoxy)benzamido)phenyl)-2,3-dihydrobenzo[b][1,4]dioxine-6-carboxamide] | – | – | 6.54 | 6.49
20 | Cc1ccc(NC(=O)c2ccc3c(c2)OCCO3)cc1NC(=O)c1ccc(OCc2ccccn2)nc1 [Example 25, N-(5-(2,3-dihydrobenzo[b][1,4]dioxine-6-carboxamido)-2-methylphenyl)-6-(pyridin-2-ylmethoxy)nicotinamide] | – | – | 5.79 | 5.95
21 | Cc1ccc(NC(=O)c2ccc3c(c2)OCCO3)cc1NC(=O)c1ccc2c(c1)CCN2C [Example 7, N-(5-(2,3-dihydrobenzo[b][1,4]dioxine-6-carboxamido)-2-methylphenyl)-1-methylindoline-5-carboxamide] | – | – | 7.26 | 7.43
22 | Cc1ccc(NC(=O)c2ccc3c(c2)OCCO3)cc1NC(=O)c1ccc2[nH]ncc2c1 [Example 97, N-(5-(2,3-dihydrobenzo[b][1,4]dioxine-6-carboxamido)-2-methylphenyl)-1H-indazole-5-carboxamide] | – | – | 7.23 | 7.49
23 | Cc1ccc(NC(=O)c2ccc3c(c2)OCCO3)cc1NC(=O)c1ccc(OCc2cscn2)cc1 [Example 101, N-(4-methyl-3-(4-(thiazol-4-ylmethoxy)benzamido)phenyl)-2,3-dihydrobenzo[b][1,4]dioxine-6-carboxamide] | – | – | 6.91 | 7.23
24 | Cc1ccc2cc(C(=O)Nc3cc(NC(=O)c4ccc5c(c4)OCCO5)ccc3C(F)(F)F)ccc2n1 [Example 129, N-(5-(2,3-dihydrobenzo[b][1,4]dioxine-6-carboxamido)-2-(trifluoromethyl)phenyl)-2-methylquinoline-6-carboxamide] | – | – | 6.46 | 6.79
25 | Cc1ccc(NC(=O)c2ccc3c(c2)OCCO3)cc1NC(=O)c1ccc2nc(OCCCN3CCOCC3)ccc2c1 [Example 55, N-(5-(2,3-dihydrobenzo[b][1,4]dioxine-6-carboxamido)-2-methylphenyl)-2-(3-morpholinopropoxy)quinoline-6-carboxamide] | – | – | 7.89 | 7.70
26 | Cc1ccc2cc(C(=O)Nc3cc(NC(=O)c4cnc5c(c4)OCCO5)ccc3C)ccc2n1 [Example 135, N-(4-methyl-3-(2-methylquinoline-6-carboxamido)phenyl)-2,3-dihydro-[1,4]dioxino[2,3-b]pyridine-7-carboxamide] | – | – | 7.57 | 7.54
27 | Cc1ccc(NC(=O)c2ccc3c(c2)OCCO3)cc1NC(=O)c1ccc(O)cc1 [Example 93, N-(3-(4-hydroxybenzamido)-4-methylphenyl)-2,3-dihydrobenzo[b][1,4]dioxine-6-carboxamide] | – | – | 5.61 | 6.10
